In patent US7211566B2 (Universite De Sherbrooke, priority 2003, dated 2007):

Assays:
[1] = human plasma as a source of aminopeptidase M (AmM); settings: up to 60 min
[2] = test system: angiotensin converting enzyme (ACE); assay: Purified ACE from rabbit lungs (Sigma, St. Louis, Mo.) dissolved in PBS (50 mM, pH 7.5, containing 300 mM NaCl and 10 μM ZnCl2); settings: 37° C., up to 60 min
serum = settings: rat, 37° C., up to 4 hours
plasma = settings: rat, 37° C., up to 4 hours
blood = settings: rat, 37° C., up to 4 hours
[3] = test system: carboxypeptidases of the M type (CPM); settings: cited from earlier work
[4] = test system: carboxypeptidases of the N type (CPN); settings: cited from earlier work
aminopeptidases = settings: cited from earlier work
BKB1 receptor = molecular target: T1, BKB1 receptor (Homo sapiens, UniProt P46663); settings: Gobeil et al. 1996; cited from earlier work
T1 sequence (P46663 1-353): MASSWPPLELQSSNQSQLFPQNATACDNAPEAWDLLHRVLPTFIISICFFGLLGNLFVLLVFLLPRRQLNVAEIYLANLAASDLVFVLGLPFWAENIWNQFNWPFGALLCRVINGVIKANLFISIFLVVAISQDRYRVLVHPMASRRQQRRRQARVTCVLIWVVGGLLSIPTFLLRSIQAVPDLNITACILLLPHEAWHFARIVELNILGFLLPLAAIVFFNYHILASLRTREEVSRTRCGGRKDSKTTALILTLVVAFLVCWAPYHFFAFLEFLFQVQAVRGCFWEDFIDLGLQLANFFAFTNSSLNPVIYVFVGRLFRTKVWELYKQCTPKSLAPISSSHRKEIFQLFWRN

STZ diabetic mice [5] = assay: Tail immersion test, type-1 diabetic hyperalgesia; type: in vivo
Method: (§1) Male CD-1 mice weighting between 25–30 g (Charles River Breeding Laboratory, St-Constant, QC, Canada) were used. The mice were housed four by cage with free access to food and water. They were maintained under conditions of standard lighting, (alternating 12-h light/dark cycle), temperature (22±0.5° C.) and humidity (60±10%) with food and water available at libitum. Animals were used only once in a given experiment. Experiments were conducted between 10:00 and 18:00 h. […]
(§2) Insulin-dependent diabetes mellitus (IDDM) was induced in mice using STZ. […] Blood glucose levels were determined with an automatic analyzer (Glucometer Elite XL, Bayer Incorporation, Toronto, Ontario, Canada) using glucose oxidase/potassium ferricyanide reagent strips. […]
The tail-immersion test was performed according to Coderre and Rollman (Coderre and Rollman, 1983, Life Sci 32, 2139–2146). […] The latency between submersion of the tail and its removal from the water by the animal was recorded, with a maximum cut-off time of 10 seconds to minimize tail skin tissue damage. […]
(§3) The effect of the selected drugs on nociception was determined by converting the hot plate, the plantar stimulation, the tail immersion or the tail flick responses from latencies into MPE (Maximum Percent Effect) according to the following equation (Bhargava and Zhao, 1996, Neuropeptides, 30, 219–223): […]

STZ diabetic mice [6] = assay: Tail flick test, type-1 diabetic hyperalgesia; type: in vivo
Method: (§4) Male CD-1 mice weighting between 25–30 g (Charles River Breeding Laboratory, St-Constant, QC, Canada) were used. The mice were housed four by cage with free access to food and water. They were maintained under conditions of standard lighting, (alternating 12-h light/dark cycle), temperature (22±0.5° C.) and humidity (60±10%) with food and water available at libitum. Animals were used only once in a given experiment. Experiments were conducted between 10:00 and 18:00 h.
(§5) Streptozotocin (Pharmacia & Upjohn Incorporation, Mississauga, ON, Canada) was dissolved in saline at a pH of 4.5 and administered to mice i.p. The BKB1 agonist desArg^9BK and compound c were dissolved in saline and administered to mice i.p.
as §2, with “STZ. Male CD-1 mice were given a single high i.p. dose of STZ (200 mg/kg) (McEvoy et al., 1984, J Clin Invest 74, 715–722).” for “STZ.”
The tail flick test of D'Amour and Smith (D'Amour and Smith, 1941, J Pharmacol Exp Ther 72, 74–79) modified for mice was used. […] The radiant light is focussed on a blackened spot in the mid region of the animal's tail (2–3 cm from the tip of the tail) and the latency between the application of the stimulation light and the flicking of the animal's tail is recorded. When the animal flicks its tail, its exposes a photocell in the apparatus immediately below the tail and the instrument is automatically stopped and the time is recorded. […]
as §3

STZ diabetic mice [7] = assay: Hot plate test, type-1 diabetic hyperalgesia; type: in vivo; settings: 400 μg/kg i.p.
Method: as §4, §5
as §2, with “STZ. Male CD-1 mice were given a single high i.p. dose of STZ (200 mg/kg) (McEvoy et al., 1984, J Clin Invest 74, 715–722).” for “STZ.”
The hot plate test was adapted from the technique of Eddy and Leimbach (1953, J Pharmacol Exp Ther 107, 385–389). […] When the pain threshold is reached the animal starts to react by licking its hind paw or to jump, and the reaction time is recorded with a built-in timer, with a maximum cut-off time of 30 s to avoid tissue damage. […]
as §3
(§6) In all tests, pre-treatment latencies were determined three times with an interval of 24 h starting three days before the injection of STZ or saline and the mean was calculated in order to obtain stable pre-drug response latency. […]

STZ diabetic mice [8] = assay: Plantar stimulation test, type-1 diabetic hyperalgesia; type: in vivo
Method: as §1, §2
In the plantar stimulation test, the method of Hargreaves et al. (Hargreaves et al., 1988, Pain, 32, 77–88) was used to access the hind-paw nociceptive withdrawal thresholds of a free moving mouse to thermal stimuli. […] Each latency value was determined from two applications of the radiant heat stimulus, separated by 1–2 min intervals, and the mean of the two measures is taken. […]
as §6

With “Ac-Orn[Oic^2,(α-Me)Phe^5,D-βNal^7,Ile^8]desArg^9BK” the not cleaved [1] was “Peptide metabolism 0 % (60 min)”, the not cleaved [2] was “Peptide metabolism 0 % (60 min)” and the not cleaved (serum) was >90% parent remaining after 4 hours. For the same substance, the not cleaved (plasma) was >90% parent remaining after 4 hours and the not cleaved (blood) was >90% parent remaining after 4 hours.

For Lys Arg Pro Pro Gly Phe Ser Pro Phe Arg, the cleaved bond [3] is listed as “Phe8-Arg9”, the cleaved bond [4] is listed as “Phe8-Arg9” and the fragment found (aminopeptidases) is listed as “BK”.

In the case of “Lys-desArg^9BK (KRPPGFSPF; Lys - des-Arg9 Bradykinin) [BKB1 receptor agonist]”, the “potency relative to desArg^9BK” value (BKB1 receptor) is given as 100 fold.

For desArg^9BK, the MPE (STZ diabetic mice [5]; STZ diabetic mice, i.p., 20 min after administration) was −19.23±0.60%, the “change in tail immersion latencies” value (STZ diabetic mice [5]; control mice) was “did not show significant changes” and the “potentiating effect on hyperalgesic activity” value (STZ diabetic mice [6]; STZ diabetic mice, maximal after 10 min) was 48%. For the same substance, the “change in tail flick test” value (STZ diabetic mice [6]; control mice, 400 μg/kg i.p.) was “did not induce significant changes”, the “potentiation of hyperalgesic response” value (STZ diabetic mice [7]; STZ diabetic mice) was 98% and the “change in nociceptive response” value (STZ diabetic mice [7]; control mice) was “did not induce significant changes”. The MPE (STZ diabetic mice [8]; STZ diabetic mice, 400 μg/kg i.p., 20 min after injection) was −21.03±0.75% and the “change in nociceptive response” value (STZ diabetic mice [8]; healthy mice) was “did not induce significant changes”.
